In US20230399327A1, “HIGH ACTIVITY HPK1 KINASE INHIBITOR” (ADLAI NORTYE BIOPHARMA CO., LTD., priority 2020, published 2023):

Each compound was assayed against HPK1 kinase (Homo sapiens (Human), UniProt Q92918) (assay: HPK1 kinase activity inhibition (ADP-Glo Kinase Assay)). Settings: HPK1, MBP substrate, ATP, 25° C. 60 min.
Format: biochemical
Description: Test Example 1: Detection of Compound's Ability to Inhibit HPK1 Kinase Activity (Method 1)
The specific operation is as follows: configure the enzymatic reaction system buffer (10 mM MOPS, pH 7.2, 5 mM β-glycerol-phosphate, 10 mM MgCl2, 0.8 mM EDTA, 2 mM EGTA, 0.1 mM DTT); the test compound (1 mM the compound stock solution in DMSO) was diluted with buffer to the highest concentration of 60 uM (containing 6% DMSO), and the compound with a concentration of 60 μM was initially diluted 5 times with a buffer containing 6% DMSO for a total of 8 points of gradient concentration; then dilute HPK1 kinase to 30 nM in buffer. Add 2 μl of HPK1 kinase diluent to each well of a Greiner 384-well microplate (Cat. No. 784075), and add 2 μl of buffer to the control well; add 1 μl of the diluted compound to the reaction well after brief centrifugation, and add 1 μl buffer solution containing 6% DMSO to the control well; after short centrifugation, place in a 25° C. constant temperature incubator (Shanghai Yiheng Scientific Instrument Co., Ltd., Cat. No.: LRH-150) and incubate for 20 minutes. Add 3 μl of reaction substrate (10 μM MBP and 20 μM ATP dissolved in distilled water) to each well, briefly centrifuge and incubate in a constant temperature incubator at 25° C. for 60 min, and use ADP-Glo Kinase Assay Kit to detect the enzymatic reaction activity, ADP-Glo Kinase Assay Kit detection is carried out according to the operating instructions of the kit. Data are described using the half maximal inhibitory concentration IC50 of the compound.

Sequence of HPK1 kinase (Q92918 whole entry): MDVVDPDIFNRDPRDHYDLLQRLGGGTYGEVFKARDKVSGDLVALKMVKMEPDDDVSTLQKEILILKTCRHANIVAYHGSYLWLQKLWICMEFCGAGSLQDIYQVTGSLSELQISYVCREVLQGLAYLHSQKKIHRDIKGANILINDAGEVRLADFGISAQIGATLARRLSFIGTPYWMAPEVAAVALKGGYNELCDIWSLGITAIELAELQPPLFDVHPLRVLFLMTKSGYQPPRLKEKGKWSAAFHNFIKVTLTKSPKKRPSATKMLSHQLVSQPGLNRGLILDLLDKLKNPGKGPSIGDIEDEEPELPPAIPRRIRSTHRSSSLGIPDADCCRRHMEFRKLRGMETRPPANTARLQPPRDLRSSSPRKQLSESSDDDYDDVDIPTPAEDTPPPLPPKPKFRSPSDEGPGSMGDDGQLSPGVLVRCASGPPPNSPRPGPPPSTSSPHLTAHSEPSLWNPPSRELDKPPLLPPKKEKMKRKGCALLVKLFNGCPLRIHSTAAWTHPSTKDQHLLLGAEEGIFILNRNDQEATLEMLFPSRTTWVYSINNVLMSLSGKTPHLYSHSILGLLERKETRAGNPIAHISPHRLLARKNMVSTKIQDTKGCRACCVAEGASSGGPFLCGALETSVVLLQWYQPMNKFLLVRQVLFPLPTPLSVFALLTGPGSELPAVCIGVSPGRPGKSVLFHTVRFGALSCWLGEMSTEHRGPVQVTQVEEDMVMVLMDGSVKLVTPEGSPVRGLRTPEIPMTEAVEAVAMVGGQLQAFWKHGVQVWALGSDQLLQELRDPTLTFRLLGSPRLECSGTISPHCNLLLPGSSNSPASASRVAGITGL

Point of comparison: `COc1nc2c(cc1Nc1ncc3ccnc(-c4cccnc4OC)c3n1)CN(C)CC2` [Example 34, N-(2-methoxy-6-methyl-5,6,7,8-tetrahydro-1,6-naphthyridin-3-yl)-8-(2-methoxypyridin-3-yl) pyrido[3,4-d]pyrimidin-2-amine], IC50 0.61 nM. Against it:
- COc1nc2c(cc1Nc1ncc3cccc(-c4ccc5c(cnn5C)c4)c3n1)CN(C)CC2 [Example 3, N-(2-methoxy-6-methyl-5,6,7,8-tetrahydro-1,6-naphthyridin-3-yl)-8-(1-methyl-1H-indazole-5-yl)quinazolin-2-amine] — lower, < 0.1 nM
- COc1nc2c(cc1Nc1ncc3cccc(-c4ccccc4F)c3n1)CN(C)CC2 [Example 4, 8-(2-fluorophenyl)-N-(2-methoxy-6-methyl-5,6,7,8-tetrahydro-1,6-naphthyridin-3-yl)quinazoline-2-amine] — lower, < 0.1 nM
- COc1ccccc1-c1cccc2cnc(Nc3cc4c(nc3OC)CCN(C)C4)nc12 [Example 5, N-(2-methoxy-6-methyl-5,6,7,8-tetrahydro-1,6-naphthyridin-3-yl)-8-(2-methoxyphenyl)quinazole Lin-2-amine] — lower, < 0.1 nM
- COc1cccc(-c2cccc3cnc(Nc4cc5c(nc4OC)CCN(C)C5)nc23)c1 [Example 6, N-(2-methoxy-6-methyl-5,6,7,8-tetrahydro-1,6-naphthyridin-3-yl)-8-(3-methoxyphenyl)quinazole Lin-2-amine] — lower, < 0.1 nM
- COc1nc2c(cc1Nc1ncc3cccc(C4=CCOCC4)c3n1)CN(C)CC2 [Example 7, 8-(3,6-dihydro-2H-pyran-4-yl)-N-(2-methoxy-6-methyl-5,6,7,8-tetrahydro-1,6-naphthalenepyridin-3-yl)quinazolin-2-amine] — 2-fold higher, 1.22 nM
- COc1nc2c(cc1Nc1ncc3cccc(-c4cnn(C)c4)c3n1)CN(C)CC2 [Example 8, N-(2-methoxy-6-methyl-5,6,7,8-tetrahydro-1,6-naphthyridin-3-yl)-8-(1-methyl-1H-pyrazole-4-yl)quinazolin-2-amine] — 3-fold higher, 1.84 nM
- COc1nc2c(cc1Nc1ncc3cccc(-c4cccnc4)c3n1)CN(C)CC2 [Example 9, N-(2-methoxy-6-methyl-5,6,7,8-tetrahydro-1,6-naphthyridin-3-yl)-8-(pyridin-3-yl)quinazoline-2-amine] — 5.7-fold higher, 3.49 nM
- COc1nc2c(cc1Nc1ncc3cccc(-c4ccc(=O)n(C)c4)c3n1)CN(C)CC2 [Example 10, 5-(2-((2-methoxy-6-methyl-5,6,7,8-tetrahydro-1,6-naphthyridin-3-yl)amino)quinazolin-8-yl)-1-Methylpyridin-2(1H)-one] — 2.4-fold higher, 1.48 nM
- COc1nc2c(cc1Nc1ncc3cccc(C4CCOCC4)c3n1)CN(C)CC2 [Example 11, N-(2-methoxy-6-methyl-5,6,7,8-tetrahydro-1,6-naphthyridin-3-yl)-8-(tetrahydro-2H-pyran-4-base) quinazolin-2-amine] — 2.5-fold higher, 1.54 nM
- CNC(=O)c1ccccc1-c1cccc2cnc(Nc3cc4c(nc3OC)CCN(C)C4)nc12 [Example 12, 2-(2-((2-methoxy-6-methyl-5,6,7,8-tetrahydro-1,6-naphthyridin-3-yl)amino)quinazolin-8-yl)-N-methylbenzamide] — 62-fold higher, 37.8 nM
- COC(=O)c1cccc(-c2cccc3cnc(Nc4cc5c(nc4OC)CCN(C)C5)nc23)c1 [Example 13, 3-(2-((2-methoxy-6-methyl-5,6,7,8-tetrahydro-1,6-naphthyridin-3-yl)amino)quinazolin-8-yl) methyl benzoate] — lower, < 0.1 nM
- CNC(=O)c1cccc(-c2cccc3cnc(Nc4cc5c(nc4OC)CCN(C)C5)nc23)c1 [Example 14, 3-(2-((2-methoxy-6-methyl-5,6,7,8-tetrahydro-1,6-naphthyridin-3-yl)amino)quinazolin-8-yl)-N-methylbenzamide] — 3.1-fold higher, 1.92 nM
- COc1nc2c(cc1Nc1ncc3cccc(C4=CCN(C(=O)OC(C)(C)C)CC4)c3n1)CN(C)CC2 [Example 15, 4-(2-((2-methoxy-6-methyl-5,6,7,8-tetrahydro-1,6-naphthyridin-3-yl)amino)quinazolin-8-yl)-3,6-Dihydropyridine-1(2H)-carboxylic acid tert-butyl ester] — 16-fold higher, 9.85 nM
- C=C(C)c1cccc2cnc(Nc3cc4c(nc3OC)CCN(C)C4)nc12 [Example 16, N-(2-methoxy-6-methyl-5,6,7,8-tetrahydro-1,6-naphthyridin-3-yl)-8-(prop-1-en-2-yl) quinazolin-2-amine] — 2.9-fold higher, 1.74 nM
- COc1nc2c(cc1Nc1ncc3cccc(C4=CCN(C(C)=O)CC4)c3n1)CN(C)CC2 [Example 17, 1-(4-(2-((2-methoxy-6-methyl-5,6,7,8-tetrahydro-1,6-naphthyridin-3-yl)amino)quinazoline-8-yl)-3,6-dihydropyridin-1(2H)-yl)ethan-1-one] — lower, < 0.1 nM
- COc1nc2c(cc1Nc1ncc3cccc(-c4ccccc4OC(F)(F)F)c3n1)CN(C)CC2 [Example 18] — lower, < 0.1 nM
- COc1nc2c(cc1Nc1ncc3cccc(-c4ccccc4SC)c3n1)CN(C)CC2 [Example 19, N-(2-methoxy-6-methyl-5,6,7,8-tetrahydro-1,6-naphthyridin-3-yl)-8-(2-(methylthio)phenyl) Quinazolin-2-amine] — lower, < 0.1 nM
- COc1cccc(F)c1-c1cccc2cnc(Nc3cc4c(nc3OC)CCN(C)C4)nc12 [Example 21, 8-(2-fluoro-6-methoxyphenyl)-N-(2-methoxy-6-methyl-5,6,7,8-tetrahydro-1,6-naphthyridine-3-base) quinazolin-2-amine] — lower, < 0.1 nM
- COc1nc2c(cc1Nc1ncc3cccc(-c4ccccc4OCc4ccccc4)c3n1)CN(C)CC2 [Example 22, 8-(2-(benzyloxy)phenyl)-N-(2-methoxy-6-methyl-5,6,7,8-tetrahydro-1,6-naphthyridin-3-yl) quinazolin-2-amine] — 8.5-fold higher, 5.16 nM
- COc1nc2c(cc1Nc1ncc3cccc(-c4cccnc4OC)c3n1)CN(C)CC2 [Example 23, N-(2-methoxy-6-methyl-5,6,7,8-tetrahydro-1,6-naphthyridin-3-yl)-8-(2-methoxypyridin-3-yl) quinazolin-2-amine] — lower, < 0.1 nM
- COc1nc2c(cc1Nc1ncc3cccc(N4CCCC4=O)c3n1)CN(C)CC2 [Example 24, 1-(2-((2-methoxy-6-methyl-5,6,7,8-tetrahydro-1,6-naphthyridin-3-yl)amino)quinazolin-8-yl) pyrrolidin-2-one] — lower, < 0.1 nM
- COc1ccccc1-c1nccc2cnc(Nc3cc4c(nc3OC)CCN(C)C4)nc12 [Example 25, N-(2-methoxy-6-methyl-5,6,7,8-tetrahydro-1,6-naphthyridin-3-yl)-8-(2-methoxyphenyl)pyrido [3,4-d]pyrimidin-2-amine] — 3.8-fold lower, 0.16 nM
- COc1nc2c(cc1Nc1ncc3ccnc(-c4ccc(=O)n(C)c4)c3n1)CN(C)CC2 [Example 27, 5-(2-((2-methoxy-6-methyl-5,6,7,8-tetrahydro-1,6-naphthyridin-3-yl)amino)pyrido[3,4-d]pyrimidino-8-yl)-1-methylpyridin-2(1H)-one] — 27-fold higher, 16.2 nM
- COc1nc2c(cc1Nc1ncc3cccc(-c4ccn(C)n4)c3n1)CN(C)CC2 [Example 30, N-(2-methoxy-6-methyl-5,6,7,8-tetrahydro-1,6-naphthyridin-3-yl)-8-(1-methyl-1H-pyrazole-3-yl)quinazolin-2-amine] — 2.3-fold lower, 0.27 nM
- COc1nc2c(cc1Nc1ncc3cccc(NCC4CCOCC4)c3n1)CN(C)CC2 [Example 31, N2-(2-methoxy-6-methyl-5,6,7,8-tetrahydro-1,6-naphthyridin-3-yl)-N8-((tetrahydro-2H-pyran-4-yl)methyl)quinazoline-2,8-diamine] — 2.7-fold higher, 1.66 nM
- COc1nc2c(cc1Nc1ncc3cccc(N4Cc5ccccc5C4=O)c3n1)CN(C)CC2 [Example 32, 2-(2-((2-methoxy-6-methyl-5,6,7,8-tetrahydro-1,6-naphthyridin-3-yl)amino)quinazolin-8-yl) isoindolin-1-one] — 5.9-fold higher, 3.61 nM
- COc1nc2c(cc1Nc1ncc3ccnc(N4CCCCC4)c3n1)CN(C)CC2 [Example 33, N-(2-methoxy-6-methyl-5,6,7,8-tetrahydro-1,6-naphthyridin-3-yl)-8-(piperidin-1-yl) pyrido[3,4-d]pyrimidin-2-amine] — within 1.5-fold, 0.52 nM
- COc1nc2c(cc1Nc1ncc3ccnc(N4CCOCC4)c3n1)CN(C)CC2 [Example 35, N-(2-methoxy-6-methyl-5,6,7,8-tetrahydro-1,6-naphthyridin-3-yl)-8-morpholinopyrido[3,4-d]pyrimidin-2-amine] — 1.9-fold higher, 1.16 nM
- COc1nc2c(cc1Nc1ncc3cccc(-c4ccccn4)c3n1)CN(C)CC2 [Example 37, N-(2-methoxy-6-methyl-5,6,7,8-tetrahydro-1,6-naphthyridin-3-yl)-8-(pyridin-2-yl)quinazoline-2-amine] — 7-fold higher, 4.27 nM
- COc1nc2c(cc1Nc1ncc3cccc(NCc4ccccc4)c3n1)CN(C)CC2 [Example 38, N8-Benzyl-N2-(2-methoxy-6-methyl-5,6,7,8-tetrahydro-1,6-naphthyridin-3-yl)quinazoline-2,8-diamine] — within 1.5-fold, 0.41 nM
- COc1nc2c(cc1Nc1ncc3cccc(NCC(C)C)c3n1)CN(C)CC2 [Example 39, N8-isobutyl-N2-(2-methoxy-6-methyl-5,6,7,8-tetrahydro-1,6-naphthyridin-3-yl)quinazoline-2,8-diamine] — lower, < 0.1 nM
